# Literature values as cited in patent US11903921B2 (priority 2020, dated 2024).
# Assays:
# SEB-exposed mice = settings: mouse, in vivo
# [1] = test system: LPS-induced acute pulmonary inflammation; settings: 100 μmol/kg bodyweight, mouse
# hyaluronan = settings: inhibitor of hyaluronan; compared with 4-MU
# ovalbumin-induced asthma = settings: through inhibition of NF-κB activity
# [2] = animal and human studies; orally in water, inhaled, intravenous
# [3] = test system: influenza and respiratory tract infections; settings: prophylaxis and treatment
structure (smiles),measurement,setting,value
"Cc1cc(=O)oc2cc(O)ccc12 [4-MU, 7-Hydroxy-4-methyl-2H-chromen-2-one]",SEB-induced lung permeability,SEB-exposed mice,reduction in SEB-induced lung permeability
same,cytokine production,SEB-exposed mice,reduced cytokine production
same,"expression of HAS-1, HAS-2, and HAS-3",SEB-exposed mice,"reduces expression of HAS-1, HAS-2, and HAS-3"
same,levels of HA in the lungs,SEB-exposed mice,reduced levels of HA
O=c1c(O)c(-c2ccc(O)c(O)c2)oc2cc(O)ccc12 [Fisetin],"expression of T(H)2-type cytokines (IL-4, IL-13, and IL-5)",basophils,powerfully suppress
same,anti-inflammatory effects compared with dexamethasone,[1],more pronounced than dexamethasone
same,measures of inflammation,[1],significantly reduced numerous measures of inflammation
same,effective dose relative to 4-MU,hyaluronan,10 times lower
same,efficacy in ovalbumin-induced asthma,ovalbumin-induced asthma,effective
[HH] [Molecular hydrogen],harmlessness,[2],essentially harmless
"CCCCCCCCCCCCCCCC(=O)NCCO [PEA, palmitoylethanolamide]",efficacy and safety in influenza and respiratory tract infections,[3],effective and safe
